Measurements from patent publication US20210317099A1, “SAFER, POTENT, AND FAST ACTING ANTIMICROBIAL AGENTS” (Purdue Research Foundation, priority 2020, published 2021).
≈ marks a conversion by molar mass, not a printed value. Read-outs that look alike come from different tables or passages of the source.

Assays:
Assay type in all cases: cell-based
[1] = test system: human keratinocytes cell line (HaCaT cells); test: In vitro cytotoxicity, MTS assay; conditions: 2 h
Protocol: Compounds 144, 148, 149, 151, 155, and 158 were assayed (at concentrations of 16, 32, and 64 μg/mL) against a human keratinocytes cell line (HaCaT cells) to determine their in vitro potential toxic effect. Briefly, cells were cultured in Dulbecco's Modified Eagle Medium (DMEM) supplemented with 10% fetal bovine serum (FBS) and penicillin-streptomycin at 37° C. in presence of 5% CO2. Compounds were added in the first row of the 96-well plate. Control cells received DMSO alone at a concentration equivalent to that in drug-treated wells. The cells were incubated with the compounds (in triplicate) in a 96-well plate at 37° C. in presence of 5% CO2 for two hours. The assay reagent MTS 3-(4,5-dimethylthiazol-2-yl)-5-(3-carboxymethoxyphenyl)-2-(4-sulfophenyl)-2H-tetrazolium) (Promega, Madison, Wis., USA) was subsequently added and the plate was incubated for three to four hours. Absorbance readings (at OD490) were recorded using a kinetic microplate reader (Molecular Devices, Sunnyvale, Calif., USA). The quantity of viable cells after treatment with each compound was expressed as a percentage of the viability to DMSO-treated control cells (average of triplicate wells±standard deviation).
FIG. 2. Analyzing the toxicity of compounds 144, 148, 149, 151, 155 and 158 (tested in triplicates at 16, 32 and 64 μg/mL) against human keratinocytes cells (HaCaT) using the MTS 3-(4,5-dimethylthiazol-2-yl)-5-(3-carboxymethoxyphenyl)-2-(4-sulfophenyl)-2H-tetrazolium) assay. Results are presented as percent viable cells relative to DMSO (negative control to determine a baseline measurement for the cytotoxic impact of each compound). The absorbance values represent an average of three samples analyzed for each compound. Error bars represent standard deviation values. The data were analyzed via a two-way ANOVA with post-hoc Dunnett's test for multiple comparisons. An asterisk (*) denotes statistical significance (P<0.05) between results for compounds and DMSO.

S. aureus ATCC 6538 = test: MIC, Gram-positive panel; conditions: Staphylococcus aureus, ATCC6538; S. aureus ATCC 6538; read-out: MIC
Protocol: (§1) Next, the spectrum of antibacterial activity of compounds 144, 148, 149, 151, 155, 158, and 187 was examined against a panel of clinically relevant Gram-positive bacterial pathogens including methicillin-resistant Staphylococcus aureus (MRSA), vancomycin-resistant Staphylococcus aureus (VRSA), vancomycin-resistant Enterococcus faecalis and Enterococcus faecium (VRE), and Streptococcus pneumoniae. Bacterial strains were grown aerobically overnight on tryptone soya agar plates at 37° C. Afterwards, a bacterial solution equivalent to 0.5 McFarland standard was prepared and diluted in cation-adjusted Mueller-Hinton broth (CAMHB) (for staphylococci). Enterococci and Streptococci were diluted in tryptone soya broth (TSB) to achieve a bacterial concentration of about 5×10^5 CFU/mL and seeded in 96-well plates. Compounds and control drugs were added in the first row of 96-well plates and serially diluted with media containing bacteria. Plates were then, incubated aerobically at 37° C. for 18-20 hours (except for S. pneumoniae, which was incubated at 37° C. in presence of 5% CO2 for 18-20 hours).

MRSA NRS 119 = test: MIC, Gram-positive panel; conditions: Staphylococcus aureus; MRSA NRS 119; read-out: MIC
Protocol: as §1

[2] = test system: Enterococcus faecium ATCC 700221 (VRE); test: MIC, Gram-positive panel; conditions: Enterococcus faecium ATCC 700221 (VRE); read-out: MIC
Protocol: as §1

MRSA NRS 385 = test: MIC, Gram-positive panel; conditions: Staphylococcus aureus; MRSA NRS 385; read-out: MIC
Protocol: as §1

[3] = test system: Methicillin-resistant S. pneumoniae ATCC 700677; test: MIC, Gram-positive panel; conditions: Streptococcus pneumoniae, ATCC700677; Methicillin-resistant S. pneumoniae ATCC 700677; read-out: MIC
Protocol: as §1

MRSA NRS 386 = test: MIC, Gram-positive panel; conditions: Staphylococcus aureus; MRSA NRS 386; read-out: MIC
Protocol: as §1

VRSA 12 = test: MIC, Gram-positive panel; conditions: Staphylococcus aureus; VRSA 12; read-out: MIC
Protocol: as §1

[4] = test system: Methicillin-resistant S. epidermidis NRS101; test: MIC, Gram-positive panel; conditions: Staphylococcus epidermidis; Methicillin-resistant S. epidermidis NRS101; read-out: MIC
Protocol: as §1

S. aureus NRS 107 = test: MIC, Gram-positive panel; conditions: Staphylococcus aureus, NRS107; S. aureus NRS 107; read-out: MIC
Protocol: as §1

MRSA NRS 123 = test: MIC, Gram-positive panel; conditions: Staphylococcus aureus; MRSA NRS 123; read-out: MIC
Protocol: as §1

[5] = test system: Enterococcus faecalis ATCC 51299 (VRE); test: MIC, Gram-positive panel; conditions: Enterococcus faecalis ATCC 51299 (VRE); read-out: MIC
Protocol: as §1

S. pneumoniae ATCC 51916 = test: MIC, Gram-positive panel; conditions: Streptococcus pneumoniae, ATCC51916; S. pneumoniae ATCC 51916; read-out: MIC
Protocol: as §1

VRSA 10 = test: MIC, Gram-positive panel; conditions: Staphylococcus aureus; VRSA 10; read-out: MIC
Protocol: as §1

[6] = test system: Staphylococcus aureus NRS384 (MRSA USA300); test: Initial MIC screening, broth microdilution (CLSI); conditions: for MIC: Staphylococcus aureus NRS384 (MRSA USA300), broth microdilution, visual reading
Method in brief: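 MRSA USA300 grown 24 h at 37 °C on tryptic soy agar, then adjusted to 5×10^5 CFU/ml in cation-adjusted Mueller-Hinton broth. Compounds serially diluted 64 to 0.5 μg/mL per CLSI broth microdilution; MIC recorded.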

- MIC (S. aureus ATCC 6538): 1 µg/mL (≈ 3.01 µM)
- MIC (MRSA NRS 119): 1 µg/mL (≈ 3.01 µM)
- MIC [2]: 64 µg/mL (≈ 193 µM)
- MIC (MRSA NRS 385): 1 µg/mL (≈ 3.01 µM)
- MIC [3]: 1 µg/mL (≈ 3.01 µM)
- MIC (MRSA NRS 386): 1 µg/mL (≈ 3.01 µM)
- MIC (VRSA 12): 1 µg/mL (≈ 3.01 µM)
- MIC [4]: 1 µg/mL (≈ 3.01 µM)
- MIC (S. aureus NRS 107): 1 µg/mL (≈ 3.01 µM)
- MIC (MRSA NRS 123): 1 µg/mL (≈ 3.01 µM)
- MIC [5]: > 64 µg/mL
- MIC (S. pneumoniae ATCC 51916): 1 µg/mL (≈ 3.01 µM)
- MIC (VRSA 10): 1 µg/mL (≈ 3.01 µM)
- MIC [6]: 1 µg/mL (≈ 3.01 µM)
- MIC ([6]; Staphylococcus aureus, read-out: MIC): 1 to 2 µg/mL (≈ 3.01 to 6.02 µM)
SMILES: C=C(C(=O)OC)C(c1cccc2ccccc12)C(O)c1ccccc1 (centres unmarked) [Compound 144]
- tolerable concentration as multiple of MIC against MRSA [1]: 16 to 32 times
- potency compared with control antibiotic ([6]; MRSA USA300, Table 1 assay): potency similar to the oxazolidinone class of antimicrobial drug linezolid
